Test results taken from patent US11453689B2, “3-pyrrolidine-indole derivatives as serotonergic psychedelic agents for the treatment of CNS disorders” (Mindset Pharma Inc., priority 2020, dated 2022).

Experiments:
[1] = In vivo pharmacokinetics in male SD rats (IV and PO); conditions: rat; for AUC(0-inf) / C0 / clearance / AUC(0-t) / half-life / MRT inf / Vd / Cmax / Tmax / bioavailability: male, SD, plasma; for AUC(0-t): read-out: AUC0-tlast; for half-life: read-out: Apparent t1/2 (converted); for MRT inf: read-out: MRT0-inf; for Vd: read-out: Vss; for bioavailability: read-out: F (bioavailability)
Protocol: (§1) Example 26: In Vivo Assessment of the Pharmacokinetics in Mice and Rats Formulations were administered intravenously (i.v.) via the tail vein or orally (p.o.) by gavage with disposable feeding needles. i. Analysis software: Phoenix® WinNonlin® 8.2 (Pharsight, Certara, Mountainview, Calif.) ii. Analysis methods: non-compartmental analysis, linear up/log down trapezoidal rule iii. PK parameters: C0, t1/2, AUC0-tlast. AUC0-∞, CL, Vss, MRT, tmax(po), Cmax(po), F, as appropriate • C0 concentration extrapolated to time zero following an i.v. dose • tmax time at which maximum concentration is observed • Cmax maximum observed concentration • Apparent t1/2 apparent terminal half-life • AUC0-tlast area under the concentration vs time curve from time 0 to the time of the last measurable concentration • AUC0-inf area under the concentration vs time curve from time 0 to infinity • CL systemic clearance • MRT0-inf mean residence time from time zero to infinity • Vss steady-state volume of distribution • F bioavailability=(Dose^iv*AUC^po)/(Dose^po*AUC^iv)*100

[2] = In vivo pharmacokinetics in male C57BL/6 mice (IV and PO); conditions: mouse; for AUC(0-inf) / C0 / clearance / AUC(0-t) / half-life / MRT inf / Vd / Cmax / Tmax / bioavailability: male, C57BL/6, plasma; for AUC(0-t): read-out: AUC0-tlast; for half-life: read-out: Apparent t1/2 (converted); for MRT inf: read-out: MRT0-inf; for Vd: read-out: Vss; for bioavailability: read-out: F (bioavailability)
Protocol: Example 26: In Vivo Assessment of the Pharmacokinetics in Mice and Rats […]
Male C57BL/6 mice (25-30 g) from Charles River Labs were acclimatized for a minimum of 5 days prior to dosing. Body weights will be recorded on the day of dosing.
Animals dosed p.o. were deprived of food overnight and fed ˜2 h following dosing.
Formulations were administered intravenously (i.v.) via the tail vein or orally (p.o.) by gavage with disposable feeding needles.
Serial blood samples were collected via tail snip. Terminal blood samples will be collected under isoflurane anesthesia by cardiac puncture.
All blood samples were transferred into K2EDTA tubes on wet ice and centrifuged within 5 min (3200×g for 5 min at 4° C.) to obtain plasma. Plasma will be stored at −80° C. until analysis.
as §1, with “AB Sciex QTRAP 4000 or 6500 MS/MS system equipped with an LC system with a binary pump, a solvent degasser, a thermostatted column compartment” for “Example 26: In Vivo Assessment of the Pharmacokinetics in Mice”, “a multiplate autosampler.” for “Rats Formulations were administered intravenously (i.v.) via the tail vein or orally (p.o.) by gavage with disposable feeding needles.”

Row | Compound | AUC(0-inf) ([1]; IV, 0.3 mg/kg) | C0 ([1]; IV, 0.3 mg/kg) | clearance ([1]; IV, 0.3 mg/kg) | AUC(0-t) ([1]; IV, 0.3 mg/kg) | half-life ([1]; IV, 0.3 mg/kg) | MRT inf ([1]; IV, 0.3 mg/kg) | Vd ([1]; IV, 0.3 mg/kg) | AUC(0-inf) ([1]; PO, 3 mg/kg) | Cmax ([1]; PO, 3 mg/kg) | Tmax ([1]; PO, 3 mg/kg) | AUC(0-t) ([1]; PO, 3 mg/kg) | half-life ([1]; PO, 3 mg/kg) | bioavailability ([1]; PO, 3 mg/kg) | MRT inf ([1]; PO, 3 mg/kg) | AUC0-inf/Dose ([1]; IV, 0.3 mg/kg) | AUC0-inf/Dose ([1]; PO, 3 mg/kg) | Cmax/Dose ([1]; PO, 3 mg/kg) | AUC(0-inf) ([2]; IV, 1 mg/kg) | C0 ([2]; IV, 1 mg/kg) | clearance ([2]; IV, 1 mg/kg) | further results
1 | [2H]C([2H])(c1c[nH]c2cccc(OC)c12)[C@H]1CCCN1C([2H])([2H])[2H] [Compound I-39, (R)-4-methoxy-3-((1-(methyl-d3)pyrrolidin-2-yl)methyl-d2)-1H-indole] | 26.5 ± 3.62 ng·h/mL | 50.8 ± 4.63 ng/mL | 192 mL/min/kg | 25.9 ± 3.49 ng·h/mL | 0.766 ± 0.0369 h | 0.882 ± 0.0298 h | 10.1 ± 1.01 L/kg | 36.5 ng·h/mL | 14.8 ± 3.61 ng/mL | 3.33 ± 2.31 h | 1.48 ng·h/mL | 1.48 ± 0.813 h | 19.6 ± 10.3% | 3.18 h | 88.3 ± 12.1 kg·ng·h/mL/mg | 17.3 ± 9.09 kg·ng·h/mL/mg | 4.92 ± 1.20 kg·ng/mL/mg | 1960 ± 696 ng·h/mL | 1290 ± 782 ng/mL | 9.25 mL/min/kg | AUC(0-t) ([2]; IV, 1 mg/kg): 1960 ± 696 ng·h/mL; half-life ([2]; IV, 1 mg/kg): 2.51 ± 0.366 h; MRT inf ([2]; IV, 1 mg/kg): 2.78 ± 0.388 h; Vd ([2]; IV, 1 mg/kg): 1.5 ± 0.397 L/kg; AUC(0-inf) ([2]; PO, 10 mg/kg): 214 ± 49.6 ng·h/mL; Cmax ([2]; PO, 10 mg/kg): 134 ± 14.7 ng/mL; Tmax ([2]; PO, 10 mg/kg): 0.5 h; AUC(0-t) ([2]; PO, 10 mg/kg): 210 ± 46.6 ng·h/mL; half-life ([2]; PO, 10 mg/kg): 3.91 ± 1.81 h; bioavailability ([2]; PO, 10 mg/kg): 1.09 ± 0.253%; MRT inf ([2]; PO, 10 mg/kg): 2.3 ± 0.259 h; AUC0-inf/Dose ([2]; IV, 1 mg/kg): 1960 ± 696 kg·ng·h/mL/mg; AUC0-inf/Dose ([2]; PO, 10 mg/kg): 21.4 ± 4.96 kg·ng·h/mL/mg; Cmax/Dose ([2]; PO, 10 mg/kg): 13.4 ± 1.47 kg·ng/mL/mg
2 | [2H]C([2H])(c1c[nH]c2cccc(O)c12)[C@H]1CCCN1C([2H])([2H])[2H] [Compound I-44, (R)-3-((1-(methyl-d3)pyrrolidin-2-yl)methyl-d2)-1H-indol-4-ol] | 27.3 ± 0.413 ng·h/mL | 70.2 ± 2.67 ng/mL | 183 mL/min/kg | 26.4 ± 0.186 ng·h/mL | 0.43 ± 0.0371 h | 0.528 ± 0.0255 h | 5.8 ± 0.196 L/kg | 392 ± 109 ng·h/mL | 182 ± 107 ng/mL | 0.5 ± 0.433 h | 384 ± 98.9 ng·h/mL | 3.25 ± 1.36 h | 144 ± 40.1% | 3.14 ± 1.52 h | 91.0 ± 1.38 kg·ng·h/mL/mg | 131 ± 36.5 kg·ng·h/mL/mg | 60.7 ± 35.5 kg·ng/mL/mg | 598 ± 434 ng·h/mL | 2570 ± 2560 ng/mL | 42.5 mL/min/kg | AUC(0-t) ([2]; IV, 1 mg/kg): 595 ± 433 ng·h/mL; half-life ([2]; IV, 1 mg/kg): 1.18 ± 0.205 h; MRT inf ([2]; IV, 1 mg/kg): 0.754 ± 0.12 h; Vd ([2]; IV, 1 mg/kg): 1.98 ± 1.58 L/kg; AUC(0-inf) ([2]; PO, 10 mg/kg): 537 ± 274 ng·h/mL; Cmax ([2]; PO, 10 mg/kg): 158 ± 55.4 ng/mL; Tmax ([2]; PO, 10 mg/kg): 0.75 ± 0.433 h; AUC(0-t) ([2]; PO, 10 mg/kg): 477 ± 260 ng·h/mL; half-life ([2]; PO, 10 mg/kg): 2.71 ± 0.511 h; bioavailability ([2]; PO, 10 mg/kg): 8.98 ± 4.58%; MRT inf ([2]; PO, 10 mg/kg): 3.5 ± 0.965 h; AUC0-inf/Dose ([2]; IV, 1 mg/kg): 598 ± 434 kg·ng·h/mL/mg; AUC0-inf/Dose ([2]; PO, 10 mg/kg): 53.7 ± 27.4 kg·ng·h/mL/mg; Cmax/Dose ([2]; PO, 10 mg/kg): 15.8 ± 5.54 kg·ng/mL/mg
